Read-outs that look alike come from different tables or passages of the source.
Key:
HCT 116 cells = test: HCT 116 cell proliferation assay, CTG; format: cell-based; conditions: Homo sapiens; HCT 116, CTG, 96 h; median; read-out: 2D-PROLI HCT 116 CTG 96 h, IC50 - [mol/l] (median)
Method: 400 HCT 116 cells/30 μL/well were plated in growth medium (DMEM/Ham's F12, 10% FCS) in a 384-well plate (CORNING #3571) at day 1. Reference plate was seeded for time zero determination. All plates were incubated overnight 37° C. Day 2: test compound was added in 7-step dilution and incubate at 37° C. for 96 h. Day 2: time zero plate: 30 μL/well CTG solution (Promega Cell Titer Glo solution; catalog #G755B and G756B) were added, incubated for 30 minutes, read luminescence on PheraStar. Day 6: compound treated plates: 30 μL/well CTG solution (Promega Cell Titer Glo solution; catalog #G755B and G756B) were added, incubated for 30 minutes, luminescence was read on PheraStar. Proliferation was calculated after subtracting time zero luminescence values from day 6 values and comparing to untreated wells. The IC50 values were determined using the four parameter fit.

total-p53 in MCF-7 cells = test: HTRF total-p53 in MCF-7 cells; format: cell-based; conditions: Homo sapiens, MCF7, 2 h incubation, median, read-out: HTRF total-p53 MCF-7, IC50 - [mol/l] (median)
Method: Day 1: MCF-7 cells were seeded (10,000 cells in 12 μl/well) in a 384-well-Small Volume-plate (Greiner Bio One #784075) in culture medium (RPMI 1640; (Biochrom; #F 1275; without PhenolRed)+FCS (final: 10%); (Biochrom; #S 0415)+Insulin (bovine); (final: 10 μg/mL, Biochrom; #K 3510)+L-Alanyl-L-Glutamine; (final: 2 mM, Biochrom; #K 0302)+Natriumpyruvat; (final: 1 mM, Biochrom; #L 0473)+Non Essentiell Amino Acids; (final: 1×, Biochrom; #K 0293)). The cells were then treated with different compounds or DMSO (added with the HP Dispenser) and incubated for 2 h at 37° C. Following incubation, the cells were lysed in 4 μl of lysis buffer for 1 h shaking at RT. Finally, 4 μl of antibody solution was added and the samples are incubated overnight at RT, shaking.
Total-p53 was detected in a sandwich assay format using 2 different specific antibodies, one labeled with Eu3+-Cryptate (donor) and the second with d2 (acceptor). Kit: HTRF total p53 detection assay (Cisbio Cat: 64T53PEG).
Day 2: the plate was read on PHERAstar FS (BMG Labtech settings; optic module: HTRF; integration start: 60 us; integration time: 400 μs; flash lamp). IC50 values were calculated using the DRC application in ShiNy Analysis Platform-SNAP.”

[1] = Solubility assay (thermodynamic solubility); format: physicochemical; conditions: thermodynamic from solid, aqueous buffer, mean
Method: Solubility of solid compound in aqueous buffer was determined by an equilibrium shake flask method. A saturated solution of drug in solvent (˜2 mg/ml solvent) was prepared and the solution was mixed for 24 h to ensure that equilibrium has been reached. The solution was centrifuged to remove the insoluble fraction and the concentration of the compound in solution was determined by HPLC-UV using a standard calibration curve (Kerns, E. H. et al., Solubility Methods in: Drug-like Properties: Concepts, Structure Design and Methods, p 276-286. Burlington, MA: Academic Press 2008).

human CSNK1A1 = human CSNK1A1 (Homo sapiens (Human), UniProt P48729); test: CSNK1A1 assay (ADP-Glo, 1 μM ATP); format: biochemical; conditions: median, read-out: CSNK1A1 Low ATP IC50 [mol/l] (median)
human CSNK1A1, sequence (P48729 whole entry): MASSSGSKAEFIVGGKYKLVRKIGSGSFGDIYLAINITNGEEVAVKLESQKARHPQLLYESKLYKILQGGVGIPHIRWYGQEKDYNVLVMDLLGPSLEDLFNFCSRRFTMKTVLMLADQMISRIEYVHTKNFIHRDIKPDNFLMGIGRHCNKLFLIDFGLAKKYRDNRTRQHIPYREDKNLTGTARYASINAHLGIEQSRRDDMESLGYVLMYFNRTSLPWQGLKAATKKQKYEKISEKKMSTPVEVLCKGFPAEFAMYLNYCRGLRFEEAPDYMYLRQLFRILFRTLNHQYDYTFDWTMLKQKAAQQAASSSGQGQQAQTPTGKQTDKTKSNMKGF
Method: CSNK1A1-inhibitory activity of compounds of the present invention in presence of 1 μM adenosine-tri-phosphate (ATP) was quantified employing the CSNK1A1 assay as described in the following paragraphs. In essence, the enzyme activity is measured by quantification of the adenosine-di-phosphate (ADP), which is generated as a co-product of the enzyme reaction, via the “ADP-Glo™ Kinase Assay” kit from the company Promega. This detection system works as follows: In a first step the ATP not consumed in the kinase reaction is quantitatively converted to CAMP employing an adenylate cyclase (“ADP-Glo-reagent”), then the adenylate cyclase is stopped and the ADP generated in the kinase reaction converted to ATP which generates in a luciferase-based reaction a glow-luminescence signal (“Kinase Detection Reagent”).
Recombinant fusion protein of N-terminal Glutathion-S-Transferase (GST) and full-length human CSNK1A1, expressed by baculovirus infected insect cells and purified via Glutathion affinity chromatography, was purchased from Life Technologies (product no. PV4174) and used as enzyme. As substrate for the kinase reaction the biotinylated peptide biotin-Ahx-KRRRAL-pS-VASLPGL (C-terminus in amide form) was used which can be purchased e.g. from the company Biosyntan (Berlin-Buch, Germany).
For the assay 50 nl of a 100-fold concentrated solution of the test compound in DMSO was pipetted into a white 1536-well microtiter plate (Greiner Bio-One, Frickenhausen, Germany), 2 μL of a solution of CSNK1A1 in aqueous assay buffer [50 mM HEPES pH 7.5, 10% (v/v) glycerol, 10 mM MgCl2, 50 mM NaCl, 1 mM dithiothreitol, 0.01% (w/v) bovine serum albumin, 0.01% (v/v) Triton X-100] were added and the mixture was incubated for 15 min at 22° C. to allow pre-binding of the test compounds to the enzyme before the start of the kinase reaction. Then the kinase reaction was started by the addition of 3 μL of a solution of ATP (1.67 μM=>final conc. in the 5 μL assay volume is 1 μM) and peptide substrate (50 μM=>final conc. in the 5 μL assay volume is 30 μM) in assay buffer and the resulting mixture was incubated for a reaction time of 30 min at 22° C. The concentration of CSNK1A1 was adjusted depending of the activity of the enzyme lot and was chosen appropriate to have the assay in the linear range, a typical concentrations are about 0.0375 ng/μL. The reaction was stopped by the addition of 2.5 μL of “ADP-Glo-reagent” (1:1.5 fold diluted with water) and the resulting mixture was incubated at 22° C. for 1 h to convert the ATP not consumed in the kinase reaction completely to CAMP. Subsequently 2.5 μL of the “kinase detection reagent” (1.2 fold more concentrated than recommended by the producer) were added, the resulting mixture was incubated at 22° C. for 1 h and then the luminescence measured with a suitable measurement instrument (e.g. Viewlux™ from Perkin-Elmer). The amount of emitted light was taken as a measure for the amount of ADP generated and thereby for the activity of the CSNK1A1.
The data were normalised (enzyme reaction without inhibitor=0% inhibition, all other assay components but no enzyme=100% inhibition).

[2] = read-out: Thermodynamic Solubility [mg/l] (mean)
[3] = read-out: Thermodynamic Solubility [μmol/L] (mean)

Row | Compound | IC50 (HCT 116 cells) | IC50 (total-p53 in MCF-7 cells) | solubility thermodynamic at 24 h [1, 2] | solubility thermodynamic at 24 h [1, 3] | IC50 (human CSNK1A1)
1 | O=C(Cc1cnc2ccccn12)Nc1cc(-c2[nH]c3cccnc3c2-c2ccccn2)ccn1 [Example 1, 2-imidazo[1,2-a]pyridin-3-yl-N-[4-[3-(2-pyridyl)-^1H-pyrrolo[3,2-b]pyridin-2-yl]-2-pyridyl]acetamide] | 3870 nM | 193 nM | 9.6 mg/L | 21.6 µmol/L | 5.89 nM
2 | Cn1cc(CC(=O)Nc2cc(-c3[nH]c4cccnc4c3-c3ccccn3)ccn2)cn1 [Example 2, 2-(1-methylpyrazol-4-yl)-N-[4-[3-(2-pyridyl)-^1H-pyrrolo[3,2-b]pyridin-2-yl]-2-pyridyl]acetamide] | 3600 nM | 264 nM | 85.2 mg/L | 208 µmol/L | 4.21 nM
3 | Cc1nc(CC(=O)Nc2cc(-c3[nH]c4cccnc4c3-c3ccccn3)ccn2)cs1 [Example 3, 2-(2-methylthiazol-4-yl)-N-[4-[3-(2-pyridyl)-^1H-pyrrolo[3,2-b]pyridin-2-yl]-2-pyridyl]acetamide] | 359 nM | 184 nM | 9.1 mg/L | 21.3 µmol/L | 1.81 nM
4 | O=C(Cc1cnco1)Nc1cc(-c2[nH]c3cccnc3c2-c2ccccn2)ccn1 [Example 4] | 535 nM | 137 nM | 25.2 mg/L | 63.7 µmol/L | –
5 | Cn1cnc(CC(=O)Nc2cc(-c3[nH]c4cccnc4c3-c3ccccn3)ccn2)c1 [Example 5, 2-(1-methylimidazol-4-yl)-N-[4-[3-(2-pyridyl)-^1H-pyrrolo[3,2-b]pyridin-2-yl]-2-pyridyl]acetamide] | 2790 nM | 924 nM | > 409 mg/L | > 1000 µmol/L | 4.12 nM
6 | O=C(Cc1cnc2ccccc2n1)Nc1cc(-c2[nH]c3cccnc3c2-c2ccccn2)ccn1 [Example 6, N-[4-[3-(2-pyridyl)-^1H-pyrrolo[3,2-b]pyridin-2-yl]-2-pyridyl]-2-quinoxalin-2-yl-acetamide] | 91.1 nM | 41 nM | – | – | 1.1 nM
7 | Cc1nn(C)cc1CC(=O)Nc1cc(-c2[nH]c3cccnc3c2-c2ccccn2)ccn1 [Example 9, 2-(1,3-dimethylpyrazol-4-yl)-N-[4-[3-(2-pyridyl)-^1H-pyrrolo[3,2-b]pyridin-2-yl]-2-pyridyl]acetamide] | 817 nM | 210 nM | 1.3 mg/L | 3.07 µmol/L | 2.61 nM
8 | O=C(Cc1ccon1)Nc1cc(-c2[nH]c3cccnc3c2-c2ccccn2)ccn1 [Example 10, 2-isoxazol-3-yl-N-[4-[3-(2-pyridyl)-^1H-pyrrolo[3,2-b]pyridin-2-yl]-2-pyridyl]acetamide] | 848 nM | 262 nM | 15.4 mg/L | 38.9 µmol/L | 1.97 nM
9 | Cc1ocnc1CC(=O)Nc1cc(-c2[nH]c3cccnc3c2-c2ccccn2)ccn1 [Example 11, 2-(5-methyloxazol-4-yl)-N-[4-[3-(2-pyridyl)-^1H-pyrrolo[3,2-b]pyridin-2-yl]-2-pyridyl]acetamide] | 964 nM | 375 nM | 8.4 mg/L | 20.5 µmol/L | 3.43 nM
10 | Cc1noc(C)c1CC(=O)Nc1cc(-c2[nH]c3cccnc3c2-c2ccccn2)ccn1 [Example 12, 2-(3,5-dimethylisoxazol-4-yl)-N-[4-[3-(2-pyridyl)-^1H-pyrrolo[3,2-b]pyridin-2-yl]-2-pyridyl]acetamide] | 1080 nM | 205 nM | 9.9 mg/L | 23.3 µmol/L | 1.71 nM
11 | Cc1cc(CC(=O)Nc2cc(-c3[nH]c4cccnc4c3-c3ccccn3)ccn2)on1 [Example 13, 2-(3-methylisoxazol-5-yl)-N-[4-[3-(2-pyridyl)-^1H-pyrrolo[3,2-b]pyridin-2-yl]-2-pyridyl]acetamide] | 626 nM | 152 nM | 65.9 mg/L | 161 µmol/L | 1.69 nM
12 | Cc1cc(CC(=O)Nc2cc(-c3[nH]c4cccnc4c3-c3ccccn3)ccn2)n(C)n1 [Example 14] | 544 nM | 143 nM | 4.6 mg/L | 10.9 µmol/L | 1.94 nM
13 | O=C(Cc1cc2ccccn2n1)Nc1cc(-c2[nH]c3cccnc3c2-c2ccccn2)ccn1 [Example 15, 2-pyrazolo[1,5-a]pyridin-2-yl-N-[4-[3-(2-pyridyl)-^1H-pyrrolo[3,2-b]pyridin-2-yl]-2-pyridyl]acetamide] | 171 nM | 69.3 nM | 0.8 mg/L | 1.8 µmol/L | 1.07 nM
14 | Cc1cc(CC(=O)Nc2cc(-c3[nH]c4cccnc4c3-c3ccccn3)ccn2)nn1C [Example 16, 2-(1,5-dimethylpyrazol-3-yl)-N-[4-[3-(2-pyridyl)-^1H-pyrrolo[3,2-b]pyridin-2-yl]-2-pyridyl]acetamide] | 706 nM | 193 nM | 2.5 mg/L | 5.9 µmol/L | 2.74 nM
15 | Cc1nn(C)c(C)c1CC(=O)Nc1cc(-c2[nH]c3cccnc3c2-c2ccccn2)ccn1 [Example 17, N-[4-[3-(2-pyridyl)-^1H-pyrrolo[3,2-b]pyridin-2-yl]-2-pyridyl]-2-(1,3,5-trimethylpyrazol-4-yl)acetamide] | 1030 nM | 198 nM | 14.9 mg/L | 34.1 µmol/L | 2.97 nM

From patent US20250188075A1, “SUBSTITUTED HETEROCYCLIC CSNK1 INHIBITORS” (The Broad Institute, Inc., priority 2022, published 2025)
